Species on record: Rattus norvegicus
Test: DrugMatrix - Regimen: Daily Repeat
Assay type: toxicity, organism-based, Sprague-Dawley
Set-up: regimen Daily Repeat, gender Male, age 6-8 weeks
Conditions: in vivo, po, route oral GAVAGE, vehicle 100 % WATER; for BASOPHIL / EOSINOPHIL / ERYTHROCYTE COUNT / HEMATOCRIT / HEMOGLOBIN / LEUKOCYTE COUNT / LYMPHOCYTE / MEAN CORPUSCULAR HEMOGLOBIN / MEAN CORPUSCULAR HEMOGLOBIN CONCENTRATION / MEAN CORPUSCULAR VOLUME / MONOCYTE / NEUTROPHIL / PLATELET COUNT: tissue Blood; for ALANINE AMINOTRANSFERASE / ALBUMIN / ALKALINE PHOSPHATASE / ASPARTATE AMINOTRANSFERASE / BLOOD UREA NITROGEN / CARBON DIOXIDE / CHLORIDE / CHOLESTEROL / CREATINE PHOSPHOKINASE / CREATININE / GLUCOSE / LACTATE DEHYDROGENASE / LIPASE / PHOSPHORUS / POTASSIUM / SODIUM / TOTAL BILIRUBIN / TOTAL PROTEIN / URIC ACID: tissue Plasma
[1] = 0 mg/kg, 96 h, dose level Control, time 4 day
[2] = 0 mg/kg, […], dose level Control, time 6 day
[3] = 0 mg/kg, […], dose level Control, time 14 day
[4] = […], 96 h, dose 1.6 mg/Kg, dose level High, time 4 day
[5] = […], dose 1.6 mg/Kg, dose level High, time 6 day
[6] = […], dose 1.6 mg/Kg, dose level High, time 14 day

**Q.** Which results are given for `O=[Se](=O)([O-])[O-].[Na+].[Na+]` [SODIUM SELENATE]?
**A.** BASOPHIL [1]: 0.47%; EOSINOPHIL [1]: 0.58%; ERYTHROCYTE COUNT [1]: 6.84 x10E6/uL; HEMATOCRIT [1]: 44.27%; HEMOGLOBIN [1]: 14.08 G/DL; LEUKOCYTE COUNT [1]: 13.39 x10E3/uL; LYMPHOCYTE [1]: 83.57%; MEAN CORPUSCULAR HEMOGLOBIN [1]: 20.57 pg; MEAN CORPUSCULAR HEMOGLOBIN CONCENTRATION [1]: 31.77 G/DL; MEAN CORPUSCULAR VOLUME [1]: 64.68 fL; MONOCYTE [1]: 1.92%; NEUTROPHIL [1]: 12.95%; PLATELET COUNT [1]: 1533.67 x10E3/uL; ALANINE AMINOTRANSFERASE [1]: 28.17 u/L; ALBUMIN [1]: 3.82 G/DL; ALKALINE PHOSPHATASE [1]: 354.33 u/L; ASPARTATE AMINOTRANSFERASE [1]: 73.83 u/L; BLOOD UREA NITROGEN [1]: 16 mg/dL; CARBON DIOXIDE [1]: 27.17 mmol/L; CHLORIDE [1]: 104.83 MEQ/L; CHOLESTEROL [1]: 83.33 mg/dL; CREATINE PHOSPHOKINASE [1]: 288 u/L; CREATININE [1]: 0.33 mg/dL; GLUCOSE [1]: 181.33 mg/dL; LACTATE DEHYDROGENASE [1]: 173.17 u/L; LIPASE [1]: 17.67 u/L; PHOSPHORUS [1]: 11.5 mg/dL; POTASSIUM [1]: 6.8 MEQ/L; SODIUM [1]: 147 MEQ/L; TOTAL BILIRUBIN [1]: 0.35 mg/dL; TOTAL PROTEIN [1]: 6.35 G/DL; URIC ACID [1]: 1.55 mg/dL; BASOPHIL [2]: 0.33%; EOSINOPHIL [2]: 0.85%; ERYTHROCYTE COUNT [2]: 6.98 x10E6/uL; HEMATOCRIT [2]: 38.58%; HEMOGLOBIN [2]: 14.25 G/DL; LEUKOCYTE COUNT [2]: 11.01 x10E3/uL; LYMPHOCYTE [2]: 85.07%; MEAN CORPUSCULAR HEMOGLOBIN [2]: 20.47 pg; MEAN CORPUSCULAR HEMOGLOBIN CONCENTRATION [2]: 31.45 G/DL; MEAN CORPUSCULAR VOLUME [2]: 64.9 fL; MONOCYTE [2]: 1.9%; NEUTROPHIL [2]: 11.42%; PLATELET COUNT [2]: 1289.67 x10E3/uL; BASOPHIL [3]: 0.52%; EOSINOPHIL [3]: 0.55%; ERYTHROCYTE COUNT [3]: 7.72 x10E6/uL; HEMATOCRIT [3]: 51.87%; HEMOGLOBIN [3]: 15.32 G/DL; LEUKOCYTE COUNT [3]: 16.2 x10E3/uL; LYMPHOCYTE [3]: 85.13%; MEAN CORPUSCULAR HEMOGLOBIN [3]: 19.85 pg; MEAN CORPUSCULAR HEMOGLOBIN CONCENTRATION [3]: 29.52 G/DL; MEAN CORPUSCULAR VOLUME [3]: 67.17 fL; MONOCYTE [3]: 1.7%; NEUTROPHIL [3]: 11.6%; PLATELET COUNT [3]: 1104.17 x10E3/uL; ALANINE AMINOTRANSFERASE [2]: 28.17 u/L; ALBUMIN [2]: 3.78 G/DL; ALKALINE PHOSPHATASE [2]: 385.33 u/L; ASPARTATE AMINOTRANSFERASE [2]: 78 u/L; BLOOD UREA NITROGEN [2]: 16.83 mg/dL; CARBON DIOXIDE [2]: 26.67 mmol/L; CHLORIDE [2]: 106.83 MEQ/L; CHOLESTEROL [2]: 82.67 mg/dL; CREATINE PHOSPHOKINASE [2]: 225.5 u/L; CREATININE [2]: 0.27 mg/dL; GLUCOSE [2]: 179.5 mg/dL; LACTATE DEHYDROGENASE [2]: 98.33 u/L; LIPASE [2]: 14.67 u/L; PHOSPHORUS [2]: 12.28 mg/dL; POTASSIUM [2]: 7.03 MEQ/L; SODIUM [2]: 150.33 MEQ/L; TOTAL BILIRUBIN [2]: 0.38 mg/dL; TOTAL PROTEIN [2]: 6.45 G/DL; URIC ACID [2]: 1.6 mg/dL; ALANINE AMINOTRANSFERASE [3]: 37 u/L; ALBUMIN [3]: 4.13 G/DL; ALKALINE PHOSPHATASE [3]: 342 u/L; ASPARTATE AMINOTRANSFERASE [3]: 71 u/L; BLOOD UREA NITROGEN [3]: 16.5 mg/dL; CARBON DIOXIDE [3]: 28.17 mmol/L; CHLORIDE [3]: 104 MEQ/L; CHOLESTEROL [3]: 70.67 mg/dL; CREATINE PHOSPHOKINASE [3]: 287.67 u/L; CREATININE [3]: 0.38 mg/dL; GLUCOSE [3]: 150.17 mg/dL; LACTATE DEHYDROGENASE [3]: 81.33 u/L; LIPASE [3]: 16 u/L; PHOSPHORUS [3]: 11.32 mg/dL; POTASSIUM [3]: 6.22 MEQ/L; SODIUM [3]: 147.33 MEQ/L; TOTAL BILIRUBIN [3]: 0.43 mg/dL; TOTAL PROTEIN [3]: 6.55 G/DL; URIC ACID [3]: 1.38 mg/dL; BASOPHIL [4]: 0.33%; EOSINOPHIL [4]: 0.73%; ERYTHROCYTE COUNT [4]: 6.6 x10E6/uL; HEMATOCRIT [4]: 40.23%; HEMOGLOBIN [4]: 12.93 G/DL; LEUKOCYTE COUNT [4]: 11.54 x10E3/uL; LYMPHOCYTE [4]: 85%; MEAN CORPUSCULAR HEMOGLOBIN [4]: 19.6 pg; MEAN CORPUSCULAR HEMOGLOBIN CONCENTRATION [4]: 32.13 G/DL; MEAN CORPUSCULAR VOLUME [4]: 60.97 fL; MONOCYTE [4]: 1.8%; NEUTROPHIL [4]: 11.6%; PLATELET COUNT [4]: 1460.67 x10E3/uL; ALANINE AMINOTRANSFERASE [4]: 31.33 u/L; ALBUMIN [4]: 3.73 G/DL; ALKALINE PHOSPHATASE [4]: 296.67 u/L; ASPARTATE AMINOTRANSFERASE [4]: 69.67 u/L; BLOOD UREA NITROGEN [4]: 16 mg/dL; CARBON DIOXIDE [4]: 24 mmol/L; CHLORIDE [4]: 107.67 MEQ/L; CHOLESTEROL [4]: 75.33 mg/dL; CREATINE PHOSPHOKINASE [4]: 411.33 u/L; CREATININE [4]: 0.4 mg/dL; GLUCOSE [4]: 170.67 mg/dL; LACTATE DEHYDROGENASE [4]: 107.33 u/L; LIPASE [4]: 18 u/L; PHOSPHORUS [4]: 11.1 mg/dL; POTASSIUM [4]: 6.2 MEQ/L; SODIUM [4]: 148.33 MEQ/L; TOTAL BILIRUBIN [4]: 0.4 mg/dL; TOTAL PROTEIN [4]: 6.2 G/DL; URIC ACID [4]: 1.3 mg/dL; BASOPHIL [5]: 0.27%; EOSINOPHIL [5]: 0.3%; ERYTHROCYTE COUNT [5]: 7.08 x10E6/uL; HEMATOCRIT [5]: 44.53%; HEMOGLOBIN [5]: 14.1 G/DL; LEUKOCYTE COUNT [5]: 12.82 x10E3/uL; LYMPHOCYTE [5]: 83.7%; MEAN CORPUSCULAR HEMOGLOBIN [5]: 19.97 pg; MEAN CORPUSCULAR HEMOGLOBIN CONCENTRATION [5]: 31.7 G/DL; MEAN CORPUSCULAR VOLUME [5]: 62.9 fL; MONOCYTE [5]: 2.23%; NEUTROPHIL [5]: 13.07%; PLATELET COUNT [5]: 1297.33 x10E3/uL; BASOPHIL [6]: 0.42%; EOSINOPHIL [6]: 0.92%; ERYTHROCYTE COUNT [6]: 8.04 x10E6/uL; HEMATOCRIT [6]: 52.44%; HEMOGLOBIN [6]: 15.34 G/DL; LEUKOCYTE COUNT [6]: 13.75 x10E3/uL; LYMPHOCYTE [6]: 84.4%; MEAN CORPUSCULAR HEMOGLOBIN [6]: 19.12 pg; MEAN CORPUSCULAR HEMOGLOBIN CONCENTRATION [6]: 29.26 G/DL; MEAN CORPUSCULAR VOLUME [6]: 65.28 fL; MONOCYTE [6]: 2.18%; NEUTROPHIL [6]: 11.62%; PLATELET COUNT [6]: 1231.6 x10E3/uL; ALANINE AMINOTRANSFERASE [5]: 33 u/L; ALBUMIN [5]: 4.03 G/DL; ALKALINE PHOSPHATASE [5]: 331 u/L; ASPARTATE AMINOTRANSFERASE [5]: 80 u/L; BLOOD UREA NITROGEN [5]: 16.33 mg/dL; CARBON DIOXIDE [5]: 23.67 mmol/L; CHLORIDE [5]: 108.67 MEQ/L; CHOLESTEROL [5]: 74.67 mg/dL; CREATINE PHOSPHOKINASE [5]: 413 u/L; CREATININE [5]: 0.37 mg/dL; GLUCOSE [5]: 182.67 mg/dL; LACTATE DEHYDROGENASE [5]: 123 u/L; LIPASE [5]: 8 u/L; PHOSPHORUS [5]: 12.5 mg/dL; POTASSIUM [5]: 6.73 MEQ/L; SODIUM [5]: 151.67 MEQ/L; TOTAL BILIRUBIN [5]: 0.37 mg/dL; TOTAL PROTEIN [5]: 6.83 G/DL; URIC ACID [5]: 1.77 mg/dL; ALANINE AMINOTRANSFERASE [6]: 40.4 u/L; ALBUMIN [6]: 4.2 G/DL; ALKALINE PHOSPHATASE [6]: 262.8 u/L; ASPARTATE AMINOTRANSFERASE [6]: 72.4 u/L; BLOOD UREA NITROGEN [6]: 16.4 mg/dL; CARBON DIOXIDE [6]: 27.4 mmol/L; CHLORIDE [6]: 104.4 MEQ/L; CHOLESTEROL [6]: 63.8 mg/dL; CREATINE PHOSPHOKINASE [6]: 181 u/L; CREATININE [6]: 0.42 mg/dL; GLUCOSE [6]: 154.8 mg/dL; LACTATE DEHYDROGENASE [6]: 91 u/L; LIPASE [6]: 11.6 u/L; PHOSPHORUS [6]: 11.26 mg/dL; POTASSIUM [6]: 6.38 MEQ/L; SODIUM [6]: 148.4 MEQ/L; TOTAL BILIRUBIN [6]: 0.4 mg/dL; TOTAL PROTEIN [6]: 6.72 G/DL; URIC ACID [6]: 1.52 mg/dL
